Laboratory results from patent US8129340B2, “Inhibitors of protein phosphatase 1, GADD34 and protein phosphatase 1/GADD34 complex, preparation and uses thereof” (Institut Gustave Roussy, priority 2006, dated 2012).

Key:
[1] = tested on: calreticulin; assay: Calreticulin exposure by immunofluorescence staining and flow cytometry, HCT116 cells; assay type: cell-based, human; conditions: 2 hours
Method: (§1) HCT116 cells (FIG. 7A) or CT26 cells (FIG. 7B) were cultured in complete mediums supplemented with 10% fetal calf serum alone or in the presence of the control peptide (VKKKKIKREIKI-lkaravafsekv) (SEQ ID NO: 17) or the PP1/GADD34 inhibitory peptide (VKKKKIKREIKI-lkarkvrfsekv, SEQ ID NO: 4. denominated PP1 peptide) for 2 hours. Cells were washed twice with PBS and fixed in PFA (4% w/v) for 5 min. Cells were stained with an antibody against calreticulin (pAb from Abeam, ab2907) at 1:200 dilution or isotype control, in staining buffer (PBS, 1% FCS) for 30 min on ice, followed by washing. An anti-rabbit Alexa fluor 488 immunoglobulin conjugate (Molecular Probes-Invitrogen) diluted at 1:500 was added for an additional 30 min on ice before washing and analysed by flow cytometry (FACScan, Becton Dickinson). Propidium Iodide (50 μg/ml, Becton Dickinson) was added to the samples to label and exclude permeabilized (dead) cells.

[2] = tested on: calreticulin; assay: Calreticulin exposure by immunofluorescence staining and flow cytometry, CT26 cells (peptide test); assay type: cell-based, murine; conditions: 2 hours
Method: as §1

[3] = tested on: CT26 colon cancer; assay: Intratumoural peptides with systemic mitomycin C against established CT26 colon cancer (tumor size, survival); assay type: in vivo, BALB/c mice; conditions: 10 micrograms peptide in situ plus systemic mitomycin C
Method: CT26 cells were injected se in BALB/c mice. At a size of 20 mm^2, the palpable tumors were directly inoculated in situ with 10 micrograms of either of the three following peptides (see below) alone or together with a systemic treatment with mitomycin C (as described in Obeid et al. Nat Med 2007) or PBS. • 1. Cell-penetrable PP1 inhibitory peptide VKKKKIKREIKI-LKARKVRFSEKV (SEQ ID NO: 4) • 2. Cell-penetrable control peptide VKKKKIKREIKI-LKARAVRFSEKV (SEQ ID NO: 18) • 3. Cell penetration sequence VKKKKIKREIKI (SEQ ID NO: 3) alone admixed together with PP1-inhibitory peptide LKARKVRFSEKV (SEQ ID NO: 2) alone.
5 animals/group were included in this experiment.

[4] = tested on: CT26 tumour cells; assay: Anti-tumour vaccination: dying treated CT26 cells injected in one flank, later challenge with live tumour cells; assay type: in vivo, BALB/c mice; conditions: dying CT26 cells treated with agent injected into one flank, live tumour cells in opposite flank 8 days later
[5] = tested on: CT26 cells; assay: Phagocytosis of CT26 tumour cells by dendritic cells (FACS, double positive cells); assay type: cell-based, BALB/c mice; conditions: for phagocytosis of drug-treated tumour cells by DC: within a few hours after treatment
Method: FIG. 3A, FIG. 3B: Correlation between tumour cell phagocytosis and CRT exposure. Tumour cells labelled with Cell Tracker Green were cultured with CD11c-expressing DC and the percentage of DC taking up tumour cells was determined (A) and correlated with the CRT surface exposure (B), measured as in FIG. 2E.
Mitoxantrone-treated or control cells were incubated with a blocking chicken anti-CRT antibody, followed by detection of phagocytosis by CD.
Cells were transfected with the indicated siRNAs and optionally treated with rCRT, followed by immunoblot (FIG. 3D) detection of surface CRT (FIG. 3E) and phagocytosis by DC (FIG. 3F). Results are triplicates (X±SD) and representative of three independent experiments. * denotes statistically significant differences using the Student t′ test at p<0.001.
BM cells were flushed from the tibias and femurs of BALB/c mice with culture medium composed of RPMI 1640 medium (Invitrogen Life Technologies) supplemented with 10% heat-inactivated FBS (Invitrogen), sodium pyruvate, 50 μM 2-ME (Sigma), 10 mM HEPES (pH 7.4), and penicillin/streptomycin (Invitrogen). After one centrifugation, BM cells were resuspended in Tris-ammonium chloride for 2 min to lyse RBC. After one more centrifugation, BM cells (1×10^6 cells/ml) were cultured in medium supplemented with 100 ng/ml recombinant mouse FLT3 ligand (R&D systems) in 6-well plates (Costar Corning). After 7 days, the non-adherent and loosely adherent cells were harvested with Versene, washed and transferred in 12-well plates (1.5×10^6 cells/plate) for cocultures with tumour cells.
In 12-well plates, […] adherent CT26 cells were labelled with Celltracker Green (Calbiochem) and then incubated with drugs. In some experiments viable CT26 were coated with 2 μg/10^6 cells of chicken anti-CRT antibody (ABR affinity bioreagents) or an isotype control for 30 min prior to washing and feeding to dendritic cells Cs. Alternatively CT26 cells were coated with 2 μg/10^6 cells of rCRT on ice for 30 min and washed twice prior to addition to dendritic cells. Cells were then harvested, washed three times with medium supplemented with FBS and cocultured with immature DC for 2 hours at a ratio of 1:1 and 1:5. At the end of the incubation, cells were harvested with versene, pooled with non-adherent cells present in the supernatant, washed and stained with CD11c-FITC antibody. Phagocytosis was assessed by FACS analysis of double positive cells. Phagocytic indexes refer to the ratio between values obtained at 4° C. and values obtained at 37° C. of co-incubation between DC and tumour cells.

[6] = tested on: cell surface CRT; assay: CRT exposure on enucleated CT26 cells (cytoplasts); assay type: cell-based, murine
Method: FIG. 5A: CRT exposure after anthracyclin treatment in the absence of a nucleus. Intact cells or enucleated cells (cytoplasts) were treated for 2 hours with mitoxantrone, followed by immunofluorescence detection of CRT exposure. Inserts show the effective removal of Hoechst 33342-stainable nuclei from the cytoplasts.
Trypsinized CT26 cells were enucleated as described in the publication of Andreau, K. et al. Contagious apoptosis facilitated by the HIV-1 envelope. Fusion-induced cell-to-cell transmission of a lethal signal. J. Cell Sci. 117, 5643-53 (2004). Briefly, cells were treated in 2 ml of complete RPMI medium containing cytochalasin B (10 μg/ml; Sigma) and DNase I (80 U/ml; Sigma). Cell suspension was adjusted to a final concentration of 5×10^6/ml and incubated at 37° C. for 45 minutes before being layered onto a previously prepared discontinuous Ficoll (Pharmacia) density gradient (3 ml of 100%, in 1 ml of 90% and 3 ml of 55% Ficoll Paque layer containing 5 μg/ml cytochalasin B and 40 U/ml DNase I; gradients were prepared in ultracentrifuge tubes and pre-equilibrated at 37° C. in a CO2 incubator overnight). […] Then the cell surface CRT was detected (see materials and methods) and the viability was determined by with propidium iodine staining (2 μg/ml, Sigma) for 5 min followed by cytofluorometric analysis. […] Phagocytosis was assessed by FACS analysis of double positive cells.

[7] = tested on: CRT; assay: CRT exposure on tumour cell lines of murine origin (MCA205, B16F10, J558); assay type: cell-based
[8] = tested on: CRT; assay: CRT exposure on tumour cell lines of human origin (HeLa, A549, HCT116); assay type: cell-based
[9] = tested on: CT26 tumours; assay: Intratumoural treatment of established CT26 tumours in immunocompetent mice; assay type: in vivo, BALB/c mice (wild type); conditions: for therapeutic effect of single agent on established tumours, immunocompetent mice: single intratumoural injection, 14-day-old CT26 tumours
[10] = tested on: CT26 tumours; assay: Intratumoural treatment of established CT26 tumours in immunodeficient mice; assay type: in vivo, athymic nu/nu Balb/c mice; conditions: for therapeutic effect of single agent on established tumours, nu/nu mice: single intratumoural injection
[11] = tested on: CRT; assay: Biotinylation of cell surface proteins, 2D gel electrophoresis and mass spectrometry; assay type: cell-based, murine; conditions: CT26 cells, short-term (4 h) treatment, versus untreated
[12] = tested on: ERP57; assay: Biotinylation of cell surface proteins, 2D gel electrophoresis and mass spectrometry (ERP57 spot); assay type: cell-based, murine; conditions: CT26 cells, short-term (4 h) treatment
[13] = tested on: DC; assay: DC maturation ex vivo; assay type: cell-based; conditions: alone, over a large range of concentrations
[14] = tested on: CT26 colon cancer cells; assay: In vivo anti-cancer vaccination: treated tumour cells in one flank and live tumour cells in opposite flank simultaneously; parameters: species or system BALB/c mice
Method: FIG. 4A: In vivo anti-cancer vaccination depends on CRT. CT26 colon cancer cells were transfected with the indicated siRNAs, then treated with rCRT and/or mitoxantrone (as in FIG. 3D) and the anti-tumour response was measured by simultaneously challenging BALB/c mice with mitoxantrone treated tumour cells in one flank and untreated live tumour cells in the opposite flank.
FIG. 4D: CRT-mediated amelioration of the immune response against etoposide-treated tumour cells. CT26 cells were treated for 24 h with etoposide (or PBS) and rCRT was optionally absorbed to the cell surface (inserts), followed by simultaneous injection of the etoposide ±rCRT-treated tumour cells and live tumour cells in opposite flanks and monitoring of tumour growth.
(§2) Tumours were evaluated weekly, using a caliper.

[15] = tested on: CT26 tumour cells; assay: Local immune response: tumour cells injected into foot pad, IFN-γ secretion by draining popliteal lymph node cells (ELISA); assay type: in vivo, Balb/c mice
Method: FIG. 4B: Priming of T cell responses depending on CRT. CT26 tumour cells were left untransfected or transfected with the indicated siRNAs, then treated with medium alone, mitomycin C or mitoxantrone and injected into the right food pad of Balb/c mice. Five days later, mononuclear cells from the draining popliteal lymph nodes were challenged with freeze-thawed CT26 cells, and IFN-γ secretion was assessed at 72 hrs.
FIG. 4C: Exogenous supply of CRT enhances the immunogenicity of CRT-negative dying cells. CT26 cells lacking CRT expression after depletion of CRT with a siRNA and mitoxantrone treatment or after mitomycin treatment were coated with rCRT (inserts) and then injected in the food pad, followed by assessment of the IFN-γ secretion by cells from the draining lymph nodes as in FIG. 4B.
as §2

[16] = intratumoural injection with etoposide or mitomycin C

“VKKKKIKREIKI-LKARKVRFSEKV (VKKKKIKREIKILKARKVRFSEKV; Artificial sequence including a fragment of GADD34 and a translocation motif.) [SEQ ID NO:4, fragment of GADD34 fused to a plasma membrane translocation motif]” was tested, and the “exposure of calreticulin, HCT116 cells” value [1] was “capable of inducing the exposure of calreticulin”, the “exposure of calreticulin, CT26 cells” value [2] was “capable of inducing the exposure of calreticulin” and the “therapeutic effect of combination with mitomycin C” value [3] was “synergistic therapeutic effects”.

`O=C1c2c(O)ccc(O)c2C(=O)c2c(NCCNCCO)ccc(NCCNCCO)c21` [mitoxantrone] was tested, and the “immunogenicity of cell death (protection against tumour growth, anti-tumour vaccination)” value [4] was “elicited immunogenic cell death”, the “phagocytosis of drug-treated tumour cells by DC” value [5] was “acquired the property to be phagocytosed by DC quickly” and the “time to CRT exposure in cytoplasts” value [6] was at most 1 h. The “CRT exposure on murine tumour cell lines” value [7] was “induced CRT exposure”, the “CRT exposure on human tumour cell lines” value [8] was “induced CRT exposure” and the “therapeutic effect of single agent on established tumours, immunocompetent mice” value [9] was “able to cause their permanent regression in some but not all cases”. For the same molecule, the “therapeutic effect of single agent on established tumours, nu/nu mice” value [10] was “no cure”.

For `COc1cccc2c1C(=O)c1c(O)c3c(c(O)c1C2=O)C[C@@](O)(C(=O)CO)C[C@@H]3O[C@H]1C[C@H](N)[C@H](O)[C@H](C)O1` [doxorubicin], the “immunogenicity of cell death (protection against tumour growth, anti-tumour vaccination)” value [4] was “elicited immunogenic cell death”, the “induction of surface CRT (factor)” value [11] was 6 and the “surface exposure of ERP57” value [12] was “specifically induced”. The “phagocytosis of drug-treated tumour cells by DC” value [5] was “acquired the property to be phagocytosed by DC quickly”.

B1: rCRT: recombinant CRT protein, which binds to the surface of the cells (protein, UniProt P27797 18-417, looked up)
Calreticulin: EPAVYFKEQFLDGDGWTSRWIESKHKSDFGKFVLSSGKFYGDEEKDKGLQTSQDARFYALSASFEPFSNKGQTLVVQFTVKHEQNIDCGGGYVKLFPNSLDQTDMHGDSEYNIMFGPDICGPGTKKVHVIFNYKGKNVLINKDIRCKDDEFTHLYTLIVRPDNTYEVKIDNSQVESGSLEDDWDFLPPKKIKDPDASKPEDWDERAKIDDPTDSKPEDWDKPEHIPDPDAKKPEDWDEEMDGEWEPPVIQNPEYKGEWKPRQIDNPDYKGTWIHPEIDNPEYSPDPSIYAYDNFGVLGLDLWQVKSGTIFDNFLITNDEAYAEEFGNETWGVTKAAEKQMKDKQDEEQRLKEEEEDKKRKEEEEAEDKEDDEDKDEDEEDEEDKEEDEEEDVPGQAKDEL
B1 was tested, and the “restoration of phagocytosis by DC in CRT-siRNA cells” value ([5]; rCRT added to cell surface of CRT-siRNA transfected cells) was “could reverse the defect induced by the CRT-specific siRNA”, the DC maturation [13] was “could not promote DC maturation ex vivo” and the “immunogenicity of mitoxantrone-treated CT26 cells (efficacy of anti-tumour vaccination)” value ([14]; cells injected into the flank of Balb/c mice) was “this defect was restored”. The “anti-tumour immune response to etoposide-treated cells coated with rCRT” value ([14]; etoposide-treated cells coated with rCRT) was “elicited a vigorous anti-tumour immune response in vivo”, the “anti-cancer immune response to rCRT-coated live cells” value ([14]; rCRT absorbed to cell surface without prior treatment with cell death inducers) was “failed to elicit an anti-cancer immune response” and the “immunogenicity of mitoxantrone-treated CT26 cells (interferon-γ production by T cells from popliteal lymph node)” value ([15]; cells injected into the foot pad) was “this defect was restored”. The “immunogenicity of mitomycin-treated cells coated with rCRT (IFN-γ)” value ([15]; rCRT absorbed to plasma membrane of mitomycin-treated cells) was “greatly enhanced the immunogenicity of cells that usually fail to induce an immune response”, the “effect of rCRT injected into a distant site” value ([9]; contralateral subcutaneous rCRT plus intratumoural etoposide) was “did not ameliorate the antitumoural effects of intratumorally injected etoposide” and the “therapeutic effect combined with a cell death inducer (etoposide or mitomycin C), immunocompetent mice” value [9, 16] was “able to cause tumour regression”. The “therapeutic effect of single agent on established tumours, immunocompetent mice” value [9] was “no major therapeutic effect”, the “therapeutic effect combined with a cell death inducer (etoposide or mitomycin C), immunodeficient mice” value [10, 16] was “not in immunodeficient” and the “therapeutic effect of single agent on established tumours, nu/nu mice” value [10] was “no major therapeutic effect”.
